Where a SMILES comes first, the peptide text is derived from it. [ ]: non-standard residue; d: D form. pY = N[C@@H](Cc1ccc(OP(=O)(O)O)cc1)C(=O)O
How the values were obtained:
[1] = Inhibition of melanoma cell adhesion to type IV collagen; assay type: functional, Homo sapiens
[2] = Inhibition of melanoma cell adhesion to type IV collagen;NE=no effect; assay type: functional, Homo sapiens

Row | IC50 [1] | Molecule | IC50 [2]
1 | 10 µM | CC[C@H](C)[C@H](NC(=O)[C@H](CCC(=O)O)NC(=O)[C@@H](N)C(C)C)C(=O)N[C@@H](CC(C)C)C(=O)N[C@@H](Cc1ccc(OP(=O)(O)O)cc1)C(=O)O (H-VEIL[pY]-OH) | 
2 | 90 µM | H-VEILY-OH | 
3 |  | H-YLIEV-OH | Not Active

From ChEMBL document CHEMBL1130153, “Inhibition of melanoma cell binding to type IV collagen by analogs of cell adhesion regulator” (J Med Chem, 1997)
